Measured values taken from patent publication US12617799B2, “Pyrazolopyrimidinone compounds” (Orphagen Pharmaceuticals, Inc., priority 2021, dated 2026).
Read-outs that look alike come from different tables or passages of the source.

Experiments:
[1] = tested on: rat Leydig tumor cell line R2C; assay: R2C proliferation assay for SF-1 antagonists (EdU incorporation); assay type: cell-based; settings: for EC50: read-out: R2C: EC50; for inhibition at 8 µM: Leydig
Method: SF-1 regulates progenitor cell formation and survival in adult Leydig cells. Anti-proliferative effects of SF-1 antagonists using a SF-1+ rat Leydig tumor cell line, R2C, was investigated. Cell proliferation was measured by detecting DNA incorporation of EdU, a nucleoside analogue that can be fluorescently tagged after cell fixation.
Proliferation of the rat Leydig tumor cell line R2C (ATCC® CCL-97™) was assessed using 5-ethynyl-2′-deoxyuridine (EdU), a nucleoside analogue incorporated during DNA synthesis that can be fluorescently tagged after cell fixation. Cycloheximide, a protein synthesis inhibitor, was used as a positive control for the assay.
R2C cells are maintained according to a protocol provided by the American Type Culture Collection (ATCC). At the time of assay, R2C cells were diluted to 1.0 million cells/mL with culture medium (F12 medium supplemented with 2% FBS and 1% Penicillin-Streptomycin) and 50 uL of cell suspension seeded into each well of 384-well clear bottom plates. The assay plates were incubated in a humidified, 37° C., 6% CO2 atmosphere for 24 hours. Serially diluted SF-1 antagonists, cycloheximide or vehicle (DMSO) were then applied to the R2C cells and incubated in a humidified, 37° C., 6% CO2 atmosphere for two days. EdU (Invitrogen), at a final concentration of 5 μM, was added to the cells and incubated for an additional 16 hours, after which cells were fixed with 10% formalin.
Cells were then washed and permeabilized in 0.5% TritonX-100/PBS solution at RT for 1 hour. EdU incorporation was detected by labeling EdU with 6-FAM azide (Lumiprobe) using a copper (I)-catalyzed Click reaction between an azide and alkyne. The reaction mixture consists of 5 mM ascorbic acid, 1 mM CuSO4, 1 μM 6-FAM azide dissolved in PBS buffer. […] For data normalization, the average fluorescence of DMSO wells was defined as 100%, and average fluorescence of 10 μM cycloheximide wells was defined as 0%. Curve fitting and EC50 determination were performed using the variable slope sigmoidal dose-response analysis.
R2C cells were routinely cultured in R2C culture medium. To assay SF-1 antagonist inhibitory activity, R2C cells were resuspended in the R2C plating medium and plated into a 384 well-clear bottom black plate at 20,000 cells/50 μL/well. […] 10 μL EdU plating solution were then dispensed into each well of assay plate incubated at 37° C., 6% CO2 for two days.
R2C proliferation is measured by detecting the fluorescent labelled EdU. The R2C assay plates were fixed by dispense 60 μL of 10% formalin into each well, and the plates were incubated at room temperature for 1 hour on an orbital shaker. The plates were washed with 80 μL of PBS three times, and cells were permeabilized by treating with 100 μL of PBS-0.5% TritonX-100 at RT for 1 hour on an orbital shaker. The plates were washed with 80 μL of PBS three times, and after the last wash, 25 μL of PBS was dispensed into each well. 25 μL of 2× mounting mix solution was then added into each well of fixed cells, and the plates were incubated at RT for 30 min in the dark on an orbital shaker. The cells were washed with 80 μL of PBS, three times, and after the last wash, 25 μL of PBS was dispensed into each well. […] The cells were washed with 80 μL of PBS, three times, and after the last wash, 50 μL of PBS was dispensed into each well. Assay plates were sealed with aluminum foil, and fluorescence was measured using a Envision microplate reader.
The % of control for the proliferation activity was calculated according to the following equation: % of control=100×(A−C)/(B−C) Equation • A: fluorescence count in the test article-treated R2C cells • B: mean fluorescence count in the vehicle-treated R2C cells • C: mean fluorescence count in the 10 μM cycloheximide-treated R2C cells

[2] = molecular target: T1, human SF-1 (Homo sapiens, UniProt Q13285); assay: SF-1 Luc assay (Gal4DBD-SF-1LBD luciferase reporter in transfected CHO-K1 cells); assay type: cell-based; settings: for EC50: CHO-K1 cells transfected with GAL4-SF-1 plasmid, 40 hours incubation, read-out: hSF-1-Luc: EC50
T1 construct: expressed in transfected cells; host or cells: CHO-K1 cells (Chinese hamster ovary), transient cotransfection with pG5luc
Source text: BamHI and XbaI sites introduced by the primers […] (forward) and […] (reverse) were used for subcloning the amplicon into pFA-CMV.
Cells were routinely cultured by splitting them from 1:10 to 1:20. […] Four hours after transfection, cells were trypsinized and suspended to a concentration of 1.6×10^5 cells/ml in supplemented Ham's F-12 media.
Assays: The collected cells were resuspended in the culture medium and plated into a 384 well-white plate (Corning Life Sciences, Acton, MA) at 8,000 cells/50 μL/well.
Measurement of SF-1 Transcriptional Activity: SF-1 transcriptional activity was detected as the intracellular Luc activity using SteadyLite Plus HTS Reporter Gene Assay System. After the measurement of the cell viability, the culture media in the 384 well-plate were completely removed. Then, 30 μL of the Luc substrate solution was added into each well and incubated for 10 min at room temperature. After the incubation, luminescence of each well was measured by a microplate reader.
Calculation of the SF-1 Transcriptional Activity (% of Control): The % of control for the transcriptional activity was calculated according to the following equation: % of control=A/B×100 Equation • A: luminescence count in the test article-treated CHO cells transfected with GAL4-SF-1 plasmid • B: mean luminescence count in the vehicle-treated CHO cells transfected with GAL4-SF-1 plasmid

T1 sequence (Q13285 198-461 limits assumed): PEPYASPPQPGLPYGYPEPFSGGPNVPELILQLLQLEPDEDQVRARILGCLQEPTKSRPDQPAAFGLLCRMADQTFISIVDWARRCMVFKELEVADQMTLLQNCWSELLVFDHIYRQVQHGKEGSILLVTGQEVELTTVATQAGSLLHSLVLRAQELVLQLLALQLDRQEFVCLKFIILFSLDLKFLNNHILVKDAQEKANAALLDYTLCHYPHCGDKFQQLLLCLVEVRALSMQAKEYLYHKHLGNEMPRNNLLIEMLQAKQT

| Compound | EC50 ([1]; R2C cells, EdU incorporation) [nM] | EC50 [2] [nM] | inhibition at 8 µM ([2]; CHO-K1, read-out: hSF-1-Luc: inhibition at 8 uM) [%] | EC50 ([1]; R2C) [nM] | inhibition at 8 µM [1] [%] |
| --- | --- | --- | --- | --- | --- |
| Cn1nc(Nc2ccc(C(F)(F)F)cc2)c2ncn(CC(=O)N[C@H]3CC[C@H](OCC(C)(C)O)CC3)c(=O)c21 [Compound 24, N-((trans)-4-(2-hydroxy-2-methylpropoxy)cyclohexyl)-2-(1-methyl-7-oxo-3-((4-(trifluoromethyl)phenyl)amino)-1,7-dihydro-6H-pyrazolo[4,3-d]pyrimidin-6-yl)acetamide] | < 200 | < 200 |  |  |  |
| Cn1nc(Nc2ccc(C(F)(F)F)cc2)c2ncn(CC(=O)N[C@H]3CC[C@H](O)CC3)c(=O)c21 [Compound 28, N-((trans)-4-hydroxycyclohexyl)-2-(1-methyl-7-oxo-3-((4-(trifluoromethyl)phenyl)amino)-1,7-dihydro-6H-pyrazolo[4,3-d]pyrimidin-6-yl)acetamide] | 1000 to 10000 | 200 to 1000 |  |  |  |
| Cn1nc(Nc2ccc(C(F)(F)F)cc2)c2ncn(CC(=O)N[C@H]3CC[C@H](OC(F)F)CC3)c(=O)c21 [Compound 32, N-((1r,4r)-4-(difluoromethoxy)cyclohexyl)-2-(1-methyl-7-oxo-3-((4-(trifluoromethyl)phenyl)amino)-1,7-dihydro-6H-pyrazolo[4,3-d]pyrimidin-6-yl)acetamide] |  | < 200 |  | < 200 |  |
| Cn1nc(Nc2ccc(C(F)(F)F)cc2)c2ncn(CC(=O)N[C@H]3CC[C@@H](OC(F)F)CC3)c(=O)c21 [Compound 36, N-((1s,4s)-4-(difluoromethoxy)cyclohexyl)-2-(1-methyl-7-oxo-3-((4-(trifluoromethyl)phenyl)amino)-1,7-dihydro-6H-pyrazolo[4,3-d]pyrimidin-6-yl)acetamide] |  | < 200 |  | 200 to 1000 |  |
| Cn1nc(Nc2ccc(C(F)(F)F)cc2)c2ncn(CC(=O)N[C@H]3CC[C@H](OCC4CCOCC4)CC3)c(=O)c21 [Compound 39, 2-(1-methyl-7-oxo-3-((4-(trifluoromethyl)phenyl)amino)-1,7-dihydro-6H-pyrazolo[4,3-d]pyrimidin-6-yl)-N-((1r,4r)-4-((tetrahydro-2H-pyran-4-yl)methoxy)cyclohexyl)acetamide] | < 200 | < 200 |  |  |  |
| COc1ccc(NC(=O)Cn2cnc3c(Nc4ccc(C(F)(F)F)cn4)n[nH]c3c2=O)cc1F [Compound 63, N-(3-fluoro-4-methoxyphenyl)-2-(7-oxo-3-((5-(trifluoromethyl)pyridin-2-yl)amino)-1,7-dihydro-6H-pyrazolo[4,3-d]pyrimidin-6-yl)acetamide] |  |  | 75 |  | 19 |
| COc1ccc(NC(=O)Cn2cnc3c(Nc4ccc(OC(C)C)cc4)nn(C)c3c2=O)cc1F [Compound 70, N-(3-fluoro-4-methoxyphenyl)-2-(3-((4-isopropoxyphenyl)amino)-1-methyl-7-oxo-1,7-dihydro-6H-pyrazolo[4,3-d]pyrimidin-6-yl)acetamide] | 1000 to 10000 | < 200 |  |  |  |
| COc1ccc(NC(=O)Cn2cnc3c(Nc4ccc(Cl)cc4)nn(C)c3c2=O)cc1F [Compound 71, 2-(3-((4-chlorophenyl)amino)-1-methyl-7-oxo-1,7-dihydro-6H-pyrazolo[4,3-d]pyrimidin-6-yl)-N-(3-fluoro-4-methoxyphenyl)acetamide] |  | < 200 |  | < 200 |  |
| CCn1nc(Nc2ccc(C(F)(F)F)cc2)c2ncn(CC(=O)Nc3ccc(OC)c(F)c3)c(=O)c21 [Compound 77, 2-(1-ethyl-7-oxo-3-((4-(trifluoromethyl)phenyl)amino)-1,7-dihydro-6H-pyrazolo[4,3-d]pyrimidin-6-yl)-N-(3-fluoro-4-methoxyphenyl)acetamide] |  | < 200 |  | < 200 |  |
| CCn1nc(Nc2ccc(C(F)(F)F)cc2)c2ncn(CC(=O)N[C@H]3CC[C@H](OC(F)F)CC3)c(=O)c21 [Compound 80, N-((1r,4r)-4-(difluoromethoxy)cyclohexyl)-2-(1-ethyl-7-oxo-3-((4-(trifluoromethyl)phenyl)amino)-1,7-dihydro-6H-pyrazolo[4,3-d]pyrimidin-6-yl)acetamide] |  | < 200 |  | < 200 |  |

More lines, main results first:

| EC50 ([1]; R2C cells, EdU incorporation) [nM] | EC50 [2] [nM] | inhibition at 8 µM ([2]; CHO-K1, read-out: hSF-1-Luc: inhibition at 8 uM) [%] | Compound | EC50 ([1]; R2C) [nM] | inhibition at 8 µM [1] [%] |
| --- | --- | --- | --- | --- | --- |
| < 200 | < 200 |  | Cn1nc(Nc2ccc(C(F)(F)F)cc2)c2ncn(CC(=O)N[C@H]3CC[C@H](C(C)(C)CO)CC3)c(=O)c21 [Compound 27, N-((trans)-4-(1-hydroxy-2-methylpropan-2-yl)cyclohexyl)-2-(1-methyl-7-oxo-3-((4-(trifluoromethyl)phenyl)amino)-1,7-dihydro-6H-pyrazolo[4,3-d]pyrimidin-6-yl)acetamide] |  |  |
|  | 1000 to 10000 |  | Cn1nc(Nc2ccc(C(F)(F)F)cn2)c2ncn(CC(=O)N[C@H]3CC[C@H](OCC(C)(C)O)CC3)c(=O)c21 [Compound 52, N-((1r,4r)-4-(2-hydroxy-2-methylpropoxy)cyclohexyl)-2-(1-methyl-7-oxo-3-((5-(trifluoromethyl)pyridin-2-yl)amino)-1,7-dihydro-6H-pyrazolo[4,3-d]pyrimidin-6-yl)acetamide] |  | 72 |
| 1000 to 10000 | 200 to 1000 |  | Cn1nc(Nc2ccc(C(F)(F)F)cn2)c2ncn(CC(=O)N[C@H]3CC[C@H](OC(F)F)CC3)c(=O)c21 [Compound 55, N-((1r,4r)-4-(difluoromethoxy)cyclohexyl)-2-(1-methyl-7-oxo-3-((5-(trifluoromethyl)pyridin-2-yl)amino)-1,7-dihydro-6H-pyrazolo[4,3-d]pyrimidin-6-yl)acetamide] |  |  |
| 1000 to 10000 | 1000 to 10000 |  | COc1ccc(NC(=O)Cn2cnc3c(Nc4ccc(C(F)(F)F)cn4)nn(C)c3c2=O)cc1F [Compound 64, N-(3-fluoro-4-methoxyphenyl)-2-(1-methyl-7-oxo-3-((5-(trifluoromethyl)pyridin-2-yl)amino)-1,7-dihydro-6H-pyrazolo[4,3-d]pyrimidin-6-yl)acetamide] |  |  |
| 200 to 1000 | < 200 |  | Cn1nc(Nc2ccc(C(F)(F)F)nc2)c2ncn(CC(=O)N[C@H]3CC[C@H](OC(F)F)CC3)c(=O)c21 [Compound 65, N-((1r,4r)-4-(difluoromethoxy)cyclohexyl)-2-(1-methyl-7-oxo-3-((6-(trifluoromethyl)pyridin-3-yl)amino)-1,7-dihydro-6H-pyrazolo[4,3-d]pyrimidin-6-yl)acetamide] |  |  |
| 1000 to 10000 | 200 to 1000 |  | Cn1nc(Nc2ccc(C(F)(F)F)nc2)c2ncn(CC(=O)N[C@H]3CC[C@H](OCC(C)(C)O)CC3)c(=O)c21 [Compound 68, N-((1r,4r)-4-(2-hydroxy-2-methylpropoxy)cyclohexyl)-2-(1-methyl-7-oxo-3-((6-(trifluoromethyl)pyridin-3-yl)amino)-1,7-dihydro-6H-pyrazolo[4,3-d]pyrimidin-6-yl)acetamide] |  |  |
